Source: US12226395B2, “Composition for preventing or treating neurodegenerative diseases, containing diterpene-based compound” (KOREA RESEARCH INSTITUTE OF BIOSCIENCE AND BIOTECHNOLOGY, priority 2017, dated 2025)
Like-named read-outs stand apart in the source and are kept apart here. Values belong to the compound of their own block, whether it stands above or below them.

Columns and labels:
Format in all cases: cell-based
[1] = target: T1, Nurr1 (Homo sapiens, UniProt P43354); assay: Nurr1 activity, luciferase reporter analysis in transfected BE(2)C cells; conditions: for Nurr1 activity (luciferase), multiple of 0.1% DMSO control: BE(2)C cells, 20 hours
T1 construct: 3 types of plasmid DNA, including DNA containing Nurr1-LBD and DNA with β-galactosidase, were transfected into BE(2)C cells; expressed in transfected cells; host or cells: BE(2)C cells
Excerpt: As in Example 2, Nurr1 activity according to the concentration of the diterpene isolated from the extract of Daphne genkwa was confirmed through luciferase analysis.
Specifically, after synthesizing a vector in which the gene having the nucleotide sequence (5′-CTCGGAGGACAGTACTCCG-3 SEQ ID NO:1) to which the GLA4 gene can bind is repeated 8 times to the reporter gene, luciferase, is synthesized, 3 types of plasmid DNA, including DNA containing Nurr1-LBD and DNA with β-galactosidase, were transfected into BE(2)C cells. After 6 hours, the compounds 1 to 10 separated in Example 2 were treated according to the concentrations in Table 1 below. The cells thus treated were cultured in a 5% carbon dioxide incubator at 37° C. for 20 hours, and then luciferase analysis was performed. As a control, 0.1% DMSO was used, and at this time, the activity was increased by multiple, and Amodiaquine was used as a positive control.

[2] = tested on: nitric oxide production in microglia BV-2 cells; assay: Inhibition of nitric oxide production in LPS-treated microglia BV-2 cells (Griess reagent); conditions: Mus musculus
Excerpt: The death of cranial nerve cells due to an inflammatory reaction in a microglia cell has been reported as one of the main causes of degenerative brain diseases such as dementia and Parkinson's disease. (Sarkar S et al., Neurotoxicology, 44, 250-262 (2014); Bower J H et al., Neurology, 67, 494-496 (2006)). Accordingly, the inhibition activity on nitric oxide production, a representative inflammatory factor, was investigated for the compounds isolated from Example 2 in a microglia. Specifically, microglia BV-2 cells were put into a 96-well plate at 5×10^4 cells/well, and cultured for 2 days, followed by incubation with LPS ([…]) for 24 hours with the compound isolated in Example 2 above. The culture supernatant was measured for absorbance at 540 nm using the Griess reagent to quantify nitrite to investigate the amount of nitric oxide production. Minocyline was used as a positive control.

[3] = target: T1, Nurr1; assay: Nurr1 activity, luciferase reporter analysis in transfected BE(2)C cells; conditions: for Nurr1 activity (luciferase), multiple of 0.1% DMSO control: BE(2)C cells, 20 hours; remark: listed apart in the source
[4] = High concentration = 10 μM (Table 1)
[5] = Low concentration = 0.1 μM (Table 1)
[6] = Mid concentration = 1 μM (Table 1)
[7] = BV-2 cells, LPS 24 hours, nitrite by Griess reagent, read-out: IC50, inhibition of nitric oxide production (Table 4)
[8] = High concentration = 1 μM (Table 1)
[9] = Low concentration = 0.01 μM (Table 1)
[10] = Mid concentration = 0.1 μM (Table 1)
[11] = BV-2, 24 h, read-out: IC50, inhibition of nitric oxide production (Table 4)

T1 sequence (P43354 360-595 limits assumed): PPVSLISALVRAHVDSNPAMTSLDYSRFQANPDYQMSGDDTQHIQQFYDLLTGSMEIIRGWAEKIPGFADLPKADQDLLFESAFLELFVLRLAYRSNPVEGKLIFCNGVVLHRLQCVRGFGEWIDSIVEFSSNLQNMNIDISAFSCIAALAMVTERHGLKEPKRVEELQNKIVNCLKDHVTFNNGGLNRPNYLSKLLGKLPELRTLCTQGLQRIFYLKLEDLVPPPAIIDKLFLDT

Structure (SMILES): C=C(C)[C@]12C[C@@H](C)[C@@]34O[C@](c5ccccc5)(O[C@@H]1C3[C@@H]1O[C@]1(CO)[C@@H](O)[C@]1(O)C(=O)[C@@H](C)CC41)O2 (stereo partly drawn) [Formula 9, (2S,3aR,3cS,4aR,5S,5aS,7S,8bR,9R,10aR)-5,5a-dihydroxy-4a-(hydroxymethyl)-7,9-dimethyl-2-phenyl-10a-(prop-1-en-2-yl)dodecahydro-6H-2,8b-epoxyoxireno[2″,3″:6′,7′]azuleno[5′,4′:3,4]benzo[1,2-d][1,3]dioxol-6-one]
- Nurr1 activity (luciferase), multiple of 0.1% DMSO control [1, 4]: 1.5
- Nurr1 activity (luciferase), multiple of 0.1% DMSO control [1, 5]: 1.7
- Nurr1 activity (luciferase), multiple of 0.1% DMSO control [1, 6]: 2.4
- IC50 [2, 7]: 1600 ± 370 nM

- IC50 [2, 7]: 21300 ± 480 nM
Structure (SMILES): CN(C)c1ccc(O)c2c1C[C@H]1C[C@H]3[C@H](N(C)C)C(O)=C(C(N)=O)C(=O)[C@@]3(O)C(O)=C1C2=O [Minocycline, reference compound]

Structure (SMILES): C=C(C)[C@]12C[C@@H](C)[C@@]34O[C@](c5ccccc5)(O[C@@H]1C3[C@@H]1O[C@]1(CO)[C@@H](O)[C@@]1(O)C4C[C@H](C)[C@@H]1OC(=O)/C=C/C=C/CCCCC)O2 (stereo partly drawn) [compound 12, (2S,3aR,3cS,4aR,5S,5aS,6S,7S,8bR,9R,10aR)-5,5a-dihydroxy-4a-(hydroxymethyl)-7,9-dimethyl-2-phenyl-10a-(prop-1-en-2-yl)dodecahydro-6H-2,8b-epoxyoxireno[2″,3″:6′,7′]azuleno[5′,4′:3,4]benzo[1,2-d][1,3]dioxol-6-yl (2E,4E)-deca-2,4-dienoate]
- IC50 ([2]; BV-2 cells, LPS 24 hours, nitrite by Griess reagent, read-out: IC50, inhibition of nitric oxide production (Table 5)): 2300 nM
- Nurr1 activity (Table 3), relative to control treatment ([3]; 0.03 μM): 1.4 ± 0.18
- Nurr1 activity (Table 3), relative to control treatment ([3]; 0.1 μM): **1.29 ± 0.04
- Nurr1 activity (Table 3), relative to control treatment ([3]; 0.3 μM): *1.33 ± 0.06
- Nurr1 activity (Table 3), relative to control treatment ([3]; 1 μM): *1.62 ± 0.21

Structure (SMILES): C=C(C)[C@@]12O[C@@]3(c4ccccc4)O[C@@H]1C1[C@@H]4O[C@]4(CO)[C@@H](O)[C@]4(O)C(=O)[C@@H](C)CC4[C@@]1(O3)[C@H](C)[C@H]2OC(C)=O (stereo partly drawn) [Formula 6, (2S,3aR,3cS,4aR,5S,5aS,7S,8bR,9R,10R,10aS)-5,5a-dihydroxy-4a-(hydroxymethyl)-7,9-dimethyl-6-oxo-2-phenyl-10a-(prop-1-en-2-yl)dodecahydro-6H-2,8b-epoxyoxireno[2″,3″:6′,7′]azuleno[5′,4′:3,4]benzo[1,2-d][1,3]dioxol-10-yl acetate]
- Nurr1 activity (luciferase), multiple of 0.1% DMSO control [1, 8]: 2.4
- Nurr1 activity (luciferase), multiple of 0.1% DMSO control [1, 9]: 1.0
- Nurr1 activity (luciferase), multiple of 0.1% DMSO control [1, 10]: 1.8
- IC50 [2, 7]: 250 ± 60 nM

Structure (SMILES): C=C(C)[C@]12C[C@@H](C)[C@@]34O[C@](c5ccccc5)(O[C@@H]1C3[C@H](O)[C@@](O)(COC(=O)c1ccccc1)[C@@H](O)[C@@]1(O)C4C[C@H](C)[C@@H]1O)O2 (stereo partly drawn) [Formula 3, ((2S,3aR,4S,5S,6S,6aR,7S,8S,9bR,10R,11aR)-4,5,6,6a,7-pentahydroxy-8,10-dimethyl-2-phenyl-11a-(prop-1-en-2-yl)dodecahydro-5H-2,9b-epoxyazuleno[5′,4′:3,4]benzo[1,2-d][1,3]dioxol-5-yl)methyl benzoate]
- Nurr1 activity (luciferase), multiple of 0.1% DMSO control [1, 4]: 1.4
- Nurr1 activity (luciferase), multiple of 0.1% DMSO control [1, 5]: 1.2
- Nurr1 activity (luciferase), multiple of 0.1% DMSO control [1, 6]: 1.4
- IC50 [2, 11]: 1060 ± 120 nM

Structure (SMILES): C=C(C)[C@@]12O[C@@]3(/C=C/C=C/CCCCC)O[C@@H]1[C@@H]1[C@@H]4O[C@]4(CO)[C@@H](O)[C@]4(O)C(=O)C(C)=C[C@H]4[C@@]1(O3)[C@H](C)[C@H]2OC(C)=O [compound 15, prostratin Q]
- IC50 ([2]; BV-2, 24 h, read-out: IC50, inhibition of nitric oxide production (Table 5)): 3730 nM
- Nurr1 activity (Table 3), relative to control treatment ([3]; 0.03 μM): 1.17 ± 0.22
- Nurr1 activity (Table 3), relative to control treatment ([3]; 0.1 μM): 1.28 ± 0.35
- Nurr1 activity (Table 3), relative to control treatment ([3]; 0.3 μM): **1.59 ± 0.08
- Nurr1 activity (Table 3), relative to control treatment ([3]; 1 μM): *2.12 ± 0.37

Structure (SMILES): C=C(C)[C@]12C[C@@H](C)[C@@]34OC(c5ccccc5)(O[C@@H]1C3[C@@H]1O[C@]1(CO)[C@@H](O)[C@]13OC(=O)O[C@H]1[C@@H](C)CC43)O2 (stereo partly shown) [Formula 10, genkwanin I]
- IC50 [2, 7]: 7790 ± 910 nM
- Nurr1 activity (luciferase), multiple of 0.1% DMSO control ([3]; High concentration = 100 μM (Table 1)): 1.1
- Nurr1 activity (luciferase), multiple of 0.1% DMSO control ([3]; Low concentration = 1 μM (Table 1)): 1.8
- Nurr1 activity (luciferase), multiple of 0.1% DMSO control ([3]; Mid concentration = 10 μM (Table 1)): 1.9

Structure (SMILES): C=C(C)[C@]12C[C@@H](C)[C@@]34O[C@](c5ccccc5)(O[C@@H]1C3[C@@H]1O[C@]1(CO)[C@@H](O)[C@@]1(O)C4C[C@H](C)[C@@H]1O)O2 (stereo partly drawn) [Formula 8, (2S,3aR,3cS,4aR,5S,5aR,6S,7S,8bR,9R,10aR)-4a-(hydroxymethyl)-7,9-dimethyl-2-phenyl-10a-(prop-1-en-2-yl)dodecahydro-5aH-2,8b-epoxyoxireno[2″,3″:6′,7′]azuleno[5′,4′:3,4]benzo[1,2-d][1,3]dioxole-5,5a,6-triol]
- Nurr1 activity (luciferase), multiple of 0.1% DMSO control [1, 4]: 1.6
- Nurr1 activity (luciferase), multiple of 0.1% DMSO control [1, 5]: 1.7
- Nurr1 activity (luciferase), multiple of 0.1% DMSO control [1, 6]: 2.0
- Nurr1 activation (in words) ([1]; no concentration stated): better effect of increasing Nurr1 activity
- IC50 [2, 7]: 1220 ± 130 nM

- Nurr1 activity (luciferase), multiple of 0.1% DMSO control ([3]; Low concentration = 5 μM (Table 1)): 0.9
- Nurr1 activity (luciferase), multiple of 0.1% DMSO control ([3]; Mid concentration = 20 μM (Table 1)): 1.8
Structure (SMILES): CCN(CC)Cc1cc(Nc2ccnc3cc(Cl)ccc23)ccc1O [AQ, Amodiaquine, reference compound]

Structure (SMILES): C=C(C)[C@]12C[C@@H](C)[C@@]34O[C@](c5ccccc5)(O[C@@H]1C3[C@@H]1O[C@]1(COC(=O)c1ccccc1)[C@@H](O)[C@@]1(O)C4C[C@H](C)[C@@H]1O)O2 (stereo partly drawn) [Formula 4, ((2S,3aR,3cS,4aR,5S,5aR,6S,7S,8bR,9R,10aR)-5,5a,6-trihydroxy-7,9-dimethyl-2-phenyl-10a-(prop-1-en-2-yl)dodecahydro-4aH-2,8b-epoxyoxireno[2″,3″:6′,7′]azuleno[5′,4′:3,4]benzo[1,2-d][1,3]dioxol-4a-yl)methyl benzoate]
- Nurr1 activity (luciferase), multiple of 0.1% DMSO control [1, 4]: 1.7
- Nurr1 activity (luciferase), multiple of 0.1% DMSO control [1, 5]: 1.0
- Nurr1 activity (luciferase), multiple of 0.1% DMSO control [1, 6]: 1.4
- IC50 [2, 11]: 180 ± 40 nM

Structure (SMILES): C=C(C)[C@@]12O[C@@]3(c4ccccc4)O[C@@H]1C1[C@@H]4O[C@]4(CO)[C@@H](O)[C@]4(O)C(=O)C(C)=CC4[C@@]1(O3)[C@H](C)[C@H]2OC(C)=O (stereo partly drawn) [Formula 1, (2S,3aR,3cS,4aR,5S,5aS,8bR,9R,10R,10aS)-5,5a-dihydroxy-4a-(hydroxymethyl)-7,9-dimethyl-6-oxo-2-phenyl-10a-(prop-1-en-2-yl)-3a,3b,3c,4a,5,5a,8a,9,10,10a-decahydro-6H-2,8b-epoxyoxireno[2″,3″:6′,7′]azuleno[5′,4′:3,4]benzo[1,2-d][1,3]dioxol-10-yl acetate]
- Nurr1 activity (luciferase), multiple of 0.1% DMSO control [1, 8]: 1.7
- Nurr1 activity (luciferase), multiple of 0.1% DMSO control [1, 9]: 1.0
- Nurr1 activity (luciferase), multiple of 0.1% DMSO control [1, 10]: 1.5
- IC50 [2, 7]: 370 ± 150 nM

Structure (SMILES): C=C(C)[C@]1(O)C[C@@H](C)[C@@]2(O)C([C@H]1OC(=O)c1ccccc1)[C@H](O)[C@@](O)(COC(=O)c1ccccc1)[C@@H](O)[C@@]1(O)C2C[C@H](C)[C@@H]1O (stereo partly drawn) [Formula 5, ((2S,3S,3aR,4S,5S,6S,7R,8R,10R,10aR)-7-(benzoyloxy)-3,3a,4,5,6,8,10a-heptahydroxy-2,10-dimethyl-8-(prop-1-en-2-yl)tetradecahydrobenzo[e]azulen-5-yl)methyl benzoate]
- Nurr1 activity (luciferase), multiple of 0.1% DMSO control [1, 4]: 1.9
- Nurr1 activity (luciferase), multiple of 0.1% DMSO control [1, 5]: 0.9
- Nurr1 activity (luciferase), multiple of 0.1% DMSO control [1, 6]: 1.2
- IC50 [2, 7]: 4670 ± 3100 nM
